Measurements as given in US8586533B2, “Treatment of early-stage osteoarthritis” (Kaohsiung Medical University, priority 2008, dated 2013).

Assays:
Assay type in all cases: cell-based
[1] = tested on: human articular chondrocytes; assay: Dimethylmethylene blue (DMMB) assay of GAG levels in chondrocyte cultures; conditions: azaC group, 3 and 7 days after azaC induction, P<0.01
Procedure: (§1) Chondrocyte cultures were divided into 4 groups.
Alginate beads were dissolved as described above and further digested by papain (300 μg/ml) at 60° C. for 18 hours. The levels of DNA and sulfated glycosaminoglycan (GAG) in the samples were quantified using Hoechst 33258 dye and 1,9-dimethylmethylene blue dye, respectively. A standard curve for the DMMB assay was generated using aqueous chondroitin sulfate C solution (Sigma-Aldrich, St. Louis, Mo.) at concentrations ranging from […].

[2] = tested on: human articular chondrocytes; assay: Quantitative real-time PCR of mRNA levels in azaC-induced terminal differentiation culture model; conditions: azaC group
Procedure: Chondrocyte cultures were divided into 4 groups. […] Louis, Mo.) for 48 hours.

[3] = tested on: human articular chondrocytes; assay: TUNEL staining, rate of apoptosis in chondrocyte cultures; conditions: azaC cultures, 14 days, P<0.01
Procedure: as §1
We measured apoptotic cells using the TUNEL (terminal deoxy-nucleotidyl transferase mediated dUTP nick end labeling) staining method using the In Situ Cell Death Detection Kit, TMR red (Roche, Mannheim, Germany). Following the manufacturer's guidelines, cells were fixed with 4% paraformaldehyde in phosphate buffered saline (PBS) at a cell density of 1×10^6/ml and incubated at room temperature for 10 minutes, and then settled on a slide by centrifugation at a speed of 2,000 rpm for 5 minutes using a cytospin (Cytospin 3; Shandon, Cheshire, UK). Slides were rinsed twice with PBS, and the cells were permeabilized by incubating in permeabilization solution (0.1% Triton X-100 in 0.1% sodium citrate) for 2 minutes on ice. The TUNEL reaction mixture containing terminal deoxynucleotidyl transferase and rhodamine (the labeling dye) was added to the slides and incubated at 37° C. in a humidified chamber in the dark for 60 minutes. The reaction was stopped by a blocking buffer (0.1% Triton X-100/0.5% bovine serum albumin in PBS). Cells were counterstained by 4′,6-diamidino-2-phenylindole (DAPI). The slides were observed under a fluorescence microscope with an excitation wavelength of 580 nm for rhodamine and 365 nm for DAPI. Cell nuclei were stained blue by DAPI, and only apoptotic cells were stained red by rhodamine. Stained cells were counted in 5 microscopic fields (1.566 mm^2/field) on each slide. Data were analyzed using Image-Pro Plus analysis software (Media Cybernetics, Silver Spring, Md.). The rate of apoptosis in chondrocytes was defined as the ratio of red-stained cells (apoptotic cells) to blue-stained cells (total cells).
By using TUNEL staining, the rate of apoptosis in human articular chondrocyte cultures in the control, azaC, and azaC plus PTH groups were compared after 14 days of PTH(1-34) treatment (for the azaC plus PTH group).

[4] = 7 and 10 days after azaC induction, P<0.01
[5] = after 3 days of azaC induction, P<0.01
[6] = after 7 days of azaC induction, P<0.05

SMILES: Nc1ncn([C@@H]2O[C@H](CO)[C@@H](O)[C@H]2O)c(=O)n1 [azaC, 5-azacytidine]
- GAG levels versus control [1]: significantly lower
- ALP mRNA level [2, 4]: 5.3-10.9 times that of control
- Col10a1 mRNA level [2, 4]: 2.3-2.4 times that of control
- Bax expression ([2]; 14 days after azaC induction, P<0.01): 2.1 times that of control
- aggrecan mRNA level ([2]; after 3 days of azaC induction (15 μg/ml, 48 hours), P<0.05): 56 % of control
- Col2a1 mRNA level [2, 5]: 46.3 % of control
- IHH expression [2, 5]: 6.5 times that of control
- Bcl-2 mRNA level ([2]; after 3 days, P<0.05): 3.2 times that of control
- aggrecan mRNA level ([2]; after 7 days of azaC induction, P<0.01): 31 % of control
- Col2a1 mRNA level [2, 6]: 64.8 % of control
- IHH expression [2, 6]: 2.6 times that of control
- IHH expression ([2]; after 10 days of azaC induction, P<0.05): 2.7 times that of control
- Bcl-2 mRNA level ([2]; after 10 days, P<0.01): 4.7 times that of control
- rate of apoptosis versus control cultures [3]: 4.8 fold increase
